Assay results from the supplement of paper PMC10307832.

Key:
Assay in all cases: relative viability (nuclei count vs DMSO), 5 days (fraction); higher = more cells survive
NCI-H1703 = tested on: NCI-H1703
Summary of the method: (§1)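 Relative viability is defined as nuclei in treated wells over nuclei in vehicle wells. Duplicate plates were run and medians reported. Lung cancer cell lines in 1536-well plates were dosed by pin tool one day after seeding, with one drug or with a fixed anchor-drug dose plus five library-drug doses (not always all listed) in √10 steps, and nuclei were counted after 5 days.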

NCI-H1299 = tested on: NCI-H1299
Summary of the method: as §1

A549 = tested on: A549
Summary of the method: as §1

Calu-6 = tested on: Calu-6
Summary of the method: as §1

NCI-H1563 = tested on: NCI-H1563
Summary of the method: as §1

NCI-H1623 = tested on: NCI-H1623
Summary of the method: as §1

Compound | relative viability (NCI-H1703; first compound 0.253 µM) | relative viability (NCI-H1703; first compound 0.8 µM) | relative viability (NCI-H1703; first compound 2.53 µM) | relative viability (NCI-H1703; first compound 8 µM) | relative viability (NCI-H1299; first compound 0.253 µM) | relative viability (NCI-H1299; first compound 0.8 µM) | relative viability (NCI-H1299; first compound 2.53 µM) | relative viability (NCI-H1299; first compound 8 µM) | relative viability (A549; first compound 0.253 µM) | relative viability (A549; first compound 0.8 µM) | relative viability (A549; first compound 2.53 µM) | relative viability (A549; first compound 8 µM) | relative viability (Calu-6; first compound 0.253 µM) | relative viability (Calu-6; first compound 0.8 µM) | relative viability (Calu-6; first compound 2.53 µM) | relative viability (Calu-6; first compound 8 µM) | relative viability (NCI-H1563; first compound 0.253 µM) | relative viability (NCI-H1563; first compound 0.8 µM) | relative viability (NCI-H1563; first compound 2.53 µM) | relative viability (NCI-H1563; first compound 8 µM) | other results
Nc1cccc2c1CN(C1CCC(=O)NC1=O)C2=O (configuration not stated) [Lenalidomide] + NC(=O)Nc1cc(-c2cccc(F)c2)sc1C(=O)N[C@H]1CCCNC1 [AZD7762] (partner 0.2 µM) | 0.123 | 0.117 | 0.131 | 0.135 |  |  |  |  |  |  |  |  |  |  |  |  |  |  |  |  | 
Nc1cccc2c1CN(C1CCC(=O)NC1=O)C2=O (configuration not stated) [Lenalidomide] + C[C@]1(O)C[C@@H](c2nc(-c3ccc4ccc(-c5ccccc5)nc4c3)c3c(N)nccn32)C1 [Linsitinib] (partner 1 µM) | 0.566 | 1.01 | 0.956 | 0.431 | 0.954 | 0.968 | 1.06 | 0.852 | 0.539 | 0.573 | 0.56 | 0.368 | 0.836 | 0.984 | 1.12 | 0.818 | 1.17 | 1.16 | 1.08 | 1.01 | 
Nc1cccc2c1CN(C1CCC(=O)NC1=O)C2=O (configuration not stated) [Lenalidomide] + COc1cc2c(Oc3ccc(NC(=O)C4(C(=O)Nc5ccc(F)cc5)CC4)cc3F)ccnc2cc1OCCCN1CCOCC1 [Foretinib] (partner 0.25 µM) | 0.328 | 0.348 | 0.403 | 0.426 | 1.1 | 1.08 | 1.09 | 1.13 | 0.925 | 0.954 | 1.04 | 0.897 | 0.932 | 0.889 | 0.921 | 0.887 | 0.894 | 0.933 | 0.902 | 0.77 | relative viability (NCI-H1623; first compound 0.253 µM): 0.858; relative viability (NCI-H1623; first compound 0.8 µM): 0.784; relative viability (NCI-H1623; first compound 2.53 µM): 0.862; relative viability (NCI-H1623; first compound 8 µM): 0.71
Nc1cccc2c1CN(C1CCC(=O)NC1=O)C2=O (configuration not stated) [Lenalidomide] + Nc1nc2[nH]cc(CCc3ccc(C(=O)N[C@@H](CCC(=O)O)C(=O)O)cc3)c2c(=O)[nH]1 [Pemetrexed] (partner 0.2 µM) |  |  |  |  |  |  |  |  |  |  |  |  |  |  |  |  | 1 | 0.361 | 0.952 | 0.637 | 
Nc1cccc2c1CN(C1CCC(=O)NC1=O)C2=O (configuration not stated) [Lenalidomide] + N=C(N)NC(=N)NCCc1ccccc1 [Phenformin] (partner 250 µM) |  |  |  |  |  |  |  |  | 0.104 | 0.158 | 0.168 | 0.208 |  |  |  |  | 0.667 | 0.774 | 0.697 | 0.613 | relative viability (NCI-H1623; first compound 0.253 µM): 0.572; relative viability (NCI-H1623; first compound 0.8 µM): 0.576; relative viability (NCI-H1623; first compound 2.53 µM): 0.601; relative viability (NCI-H1623; first compound 8 µM): 0.544
Nc1cccc2c1CN(C1CCC(=O)NC1=O)C2=O (configuration not stated) [Lenalidomide] + Cc1nc(Nc2ncc(C(=O)Nc3c(C)cccc3Cl)s2)cc(N2CCN(CCO)CC2)n1 [Dasatinib] (partner 0.075 µM) |  |  |  |  |  |  |  |  |  |  |  |  |  |  |  |  | 0.477 | 0.43 | 0.499 | 0.464 | relative viability (NCI-H1623; first compound 0.253 µM): 0.51; relative viability (NCI-H1623; first compound 0.8 µM): 0.466; relative viability (NCI-H1623; first compound 2.53 µM): 0.523; relative viability (NCI-H1623; first compound 8 µM): 0.497
Nc1cccc2c1CN(C1CCC(=O)NC1=O)C2=O (configuration not stated) [Lenalidomide] + CC1(C)CCC(c2ccc(Cl)cc2)=C(CN2CCN(c3ccc(C(=O)NS(=O)(=O)c4ccc(N[C@H](CCN5CCOCC5)CSc5ccccc5)c(S(=O)(=O)C(F)(F)F)c4)cc3)CC2)C1 [Navitoclax] (partner 0.5 µM) | 0.994 | 1.28 | 1.23 | 1.23 | 1.05 | 1.04 | 1.07 | 1.05 | 1.21 | 1.17 | 1.21 | 1.24 | 0.814 | 0.805 | 0.803 | 0.863 |  |  |  |  | 
Nc1cccc2c1CN(C1CCC(=O)NC1=O)C2=O (configuration not stated) [Lenalidomide] + Nc1ncn([C@H]2C[C@H](O)[C@@H](CO)O2)c(=O)n1 [Decitabine] (partner 2 µM) |  |  |  |  |  |  |  |  | 0.211 | 0.22 | 0.268 | 0.269 |  |  |  |  |  |  |  |  | 
Nc1cccc2c1CN(C1CCC(=O)NC1=O)C2=O (configuration not stated) [Lenalidomide] + C[C@@H](Oc1cc(-c2cnn(C3CCNCC3)c2)cnc1N)c1c(Cl)ccc(F)c1Cl [Crizotinib] (partner 1 µM) | 0.467 | 0.707 | 0.671 | 0.89 | 0.978 | 1 | 1.01 | 0.977 | 0.777 | 0.835 | 0.745 | 0.902 | 0.808 | 0.825 | 1.06 | 1.01 | 0.882 | 0.782 | 0.811 | 0.88 | 
Cc1cn(-c2cc(NC(=O)c3ccc(C)c(Nc4nccc(-c5cccnc5)n4)c3)cc(C(F)(F)F)c2)cn1 [Nilotinib] + CS(=O)(=O)CCNCc1ccc(-c2ccc3ncnc(Nc4ccc(OCc5cccc(F)c5)c(Cl)c4)c3c2)o1 [Lapatinib] (partner 2 µM) |  |  |  |  |  |  |  |  |  |  |  |  |  |  |  |  |  |  |  |  | relative viability (NCI-H1299; first compound 0.001 µM): 0.967; relative viability (NCI-H1299; first compound 0.003162 µM): 0.974; relative viability (NCI-H1299; first compound 0.01 µM): 0.992; relative viability (NCI-H1299; first compound 0.03162 µM): 1.05; relative viability (NCI-H1299; first compound 0.1 µM): 0.98; relative viability (A549; first compound 0.001 µM): 1.01; relative viability (A549; first compound 0.003162 µM): 1.07; relative viability (A549; first compound 0.01 µM): 1.09; relative viability (A549; first compound 0.03162 µM): 0.881; relative viability (A549; first compound 0.1 µM): 0.672; relative viability (NCI-H1563; first compound 0.001 µM): 0.961; relative viability (NCI-H1563; first compound 0.003162 µM): 0.916; relative viability (NCI-H1563; first compound 0.01 µM): 0.874; relative viability (NCI-H1563; first compound 0.03162 µM): 0.873; relative viability (NCI-H1563; first compound 0.1 µM): 0.596; relative viability (NCI-H1703; first compound 0.003162 µM): 0.738; relative viability (NCI-H1703; first compound 0.01 µM): 0.567; relative viability (NCI-H1703; first compound 0.03162 µM): 0.208; relative viability (NCI-H1703; first compound 0.1 µM): 0.227
Nc1cccc2c1CN(C1CCC(=O)NC1=O)C2=O (configuration not stated) [Lenalidomide] + O=C(c1cc(Cc2n[nH]c(=O)c3ccccc23)ccc1F)N1CCN(C(=O)C2CC2)CC1 [Olaparib] (partner 8 µM) | 0.398 | 0.521 | 0.478 | 0.433 | 0.938 | 1.03 | 1 | 1.07 | 0.401 | 0.101 | 0.22 | 0.228 | 0.547 | 0.591 | 0.674 | 0.799 |  |  |  |  | 
Nc1cccc2c1CN(C1CCC(=O)NC1=O)C2=O (configuration not stated) [Lenalidomide] + CCNC(=O)c1noc(-c2cc(C(C)C)c(O)cc2O)c1-c1ccc(CN2CCOCC2)cc1 [Luminespib] (partner 0.01 µM) |  |  |  |  |  |  |  |  |  |  |  |  |  |  |  |  | 0.535 | 0.526 | 0.468 | 0.581 | relative viability (NCI-H1623; first compound 0.253 µM): 0.413; relative viability (NCI-H1623; first compound 0.8 µM): 0.474; relative viability (NCI-H1623; first compound 2.53 µM): 0.557; relative viability (NCI-H1623; first compound 8 µM): 0.399
Cc1cn(-c2cc(NC(=O)c3ccc(C)c(Nc4nccc(-c5cccnc5)n4)c3)cc(C(F)(F)F)c2)cn1 [Nilotinib] + Nc1nc2[nH]cc(CCc3ccc(C(=O)N[C@@H](CCC(=O)O)C(=O)O)cc3)c2c(=O)[nH]1 [Pemetrexed] (partner 0.2 µM) |  |  |  |  |  |  |  |  |  |  |  |  |  |  |  |  |  |  |  |  | relative viability (NCI-H1563; first compound 0.001 µM): 0.746; relative viability (NCI-H1563; first compound 0.003162 µM): 0.712; relative viability (NCI-H1563; first compound 0.01 µM): 0.796; relative viability (NCI-H1563; first compound 0.03162 µM): 0.667; relative viability (NCI-H1563; first compound 0.1 µM): 0.552
Nc1cccc2c1CN(C1CCC(=O)NC1=O)C2=O (configuration not stated) [Lenalidomide] + COc1cccc2cc(-c3nc([C@H]4CC[C@H](C(=O)O)CC4)n4ncnc(N)c34)[nH]c12 [OSI-027] (partner 0.5 µM) |  |  |  |  |  |  |  |  |  |  |  |  |  |  |  |  | 0.751 | 0.8 | 0.804 | 0.72 | relative viability (NCI-H1623; first compound 0.253 µM): 0.433; relative viability (NCI-H1623; first compound 0.8 µM): 0.418; relative viability (NCI-H1623; first compound 2.53 µM): 0.375; relative viability (NCI-H1623; first compound 8 µM): 0.392
Nc1cccc2c1CN(C1CCC(=O)NC1=O)C2=O (configuration not stated) [Lenalidomide] + Cc1cc(Nc2cc(N3CCN(C)CC3)nc(Sc3ccc(NC(=O)C4CC4)cc3)n2)n[nH]1 [Tozasertib] (partner 0.1 µM) |  |  |  |  |  |  |  |  |  |  |  |  |  |  |  |  |  |  |  |  | relative viability (NCI-H1623; first compound 0.253 µM): 0.427; relative viability (NCI-H1623; first compound 0.8 µM): 0.36; relative viability (NCI-H1623; first compound 2.53 µM): 0.43; relative viability (NCI-H1623; first compound 8 µM): 0.496
Nc1cccc2c1CN(C1CCC(=O)NC1=O)C2=O (configuration not stated) [Lenalidomide] + CS(=O)(=O)N1CCN(Cc2cc3nc(-c4cccc5[nH]ncc45)nc(N4CCOCC4)c3s2)CC1 [Pictilisib] (partner 1 µM) | 0.245 | 0.27 | 0.287 | 0.267 | 0.733 | 0.923 | 0.931 | 0.963 | 0.491 | 0.448 | 0.553 | 0.52 | 0.861 | 1.01 | 1.06 | 0.969 | 0.713 | 0.667 | 0.685 | 0.638 | 
